Test results reported in patent US12303509B2, “Compounds for the treatment of BRAF-associated diseases and disorders” (Pfizer Inc., priority 2020, dated 2025).
Structures can show the parent of a compound that is named as a salt.

Assays:
[1] = MDR1 LLC-PK1 and BCRP MDCKII permeability assay: permeability coefficient (Papp); assay type: in vitro ADME
Excerpt: (§1) Final organic concentration in the assay was 1%.

[2] = test system: A375 cells; assay: Cellular phospho-ERK inhibition assay in A375 cells; assay type: cell-based; conditions: Homo sapiens, A-375, A375 cells (head prints A357), 2 hours treatment, read-out: A357 cell IC50
Description: A375 and H1755 cells were obtained from the American Type Culture Collection (ATCC, Rockville, MD). A375 cells were maintained in DMEM growth medium containing 10% FBS. H1755 cells were maintained in RPMI growth medium containing 10% FBS.
Cells were harvested according to standard protocols, counted and plated onto flat-bottom, 96-well tissue culture plates (Costar #3599) at 2.5×10^4 cells/well for A375 cells and 1.5×10^4 cells/well for H1755 cells in 100 μL/well of growth medium containing 10% FBS. After an overnight incubation at 37° C. with 5% CO2 cells were treated for 2 hours at 37° C., 5% CO2 with compounds prepared as a 9-point, 1:3.33 fold dilution series with final compound concentrations ranging from 66 pM-10 μM and a constant DMSO concentration of 0.25%. Control wells contained either 0.25% DMSO alone (uninhibited control) or 10 μM binimetinib (complete inhibition control). The levels of phosphorylated ERK are determined using an In Cell Western protocol: following compound incubation, growth medium was discarded, and cells were fixed with 0.4% formaldehyde in PBS for 20 minutes at room temperature. Cells were permeabilized with 100% methanol for 10 minutes at room temperature. Plates were washed with PBS containing 0.05% Tween-20 and blocked for 1 hour at room temperature with LI-COR Blocking Buffer (LI-COR Biosciences; Cat #927-40000). Plates were then incubated for 2 hours at room temperature with 50 μL of a 1:400 dilution of anti-phospho-ERK1/2 (Thr202/Tyr204) (Cell Signaling; Cat #9101) and a 1:1000 dilution of anti-GAPDH (Millipore; Cat #MAB374) in LI-COR blocking buffer containing 0.05% Tween-20. Plates were washed with PBS containing […] Tween-20 then incubated at room temperature for 1 hour with 50 μL of a 1:1000 dilution of anti-rabbit AlexaFluor 680 (Life Technologies; Cat #A21109) and a 1:1000 dilution of anti-mouse IRDye 800CW (LI-COR; Cat #926-32210) in LI-COR blocking buffer containing 0.05% Tween-20. Plates were analyzed by reading on an Odyssey CLx infrared scanner. For each well, the phospho-ERK signal was normalized to the GAPDH signal and converted to POC using the following equation:
[formula] • Where: • Xmax Average Uninhibited Controls • Xmin Average Complete Inhibition Controls IC50 values were then calculated using a 4-parameter fit in XLfit software and are provided in Table A1.

[3] = biological target: full-length FLAG-tagged B-Raf(V600E) (Homo sapiens (Human), UniProt P15056, V600E); assay: BRAF V600E enzyme assay (TR-FRET competitive displacement); assay type: binding; conditions: averaged IC50; TR-FRET tracer displacement, 60 min
Description: A competitive displacement assay was configured for B-Raf that monitors the amount of a fluorescently-tagged “tracer” bound to B-Raf via TR-FRET from an anti-tag Eu-labeled antibody also bound to B-Raf. For full-length FLAG-tagged B-Raf(V600E), the assay mixtures consisted of 25 mM K^+HEPES, pH 7.4, 10 mM MgCl2, 0.01% Triton X-100, 1 mM DTT, 2% DMSO (from compound), 50 nM Tracer 1710 (ThermoFisher, PR9176A), 0.5 nM Eu anti-FLAG (M2)-cryptate Ab (Cisbio, 61FG2KLB) and 5 nM full-length, N-terminally FLAG-tagged B-Raf(V600E) (Origene Technologies, TP700031. Compounds were typically diluted in DMSO across an 11-point dosing range created using a 3-fold serial dilution protocol at a top dose of 10 μM. The assay was run in 384-well, polystyrene, low-volume, non-treated, white microtiter plates (Costar 4512) in a final volume of 12 μL. Low control wells included 1 μM of a potent B-Raf inhibitor as a control. The assays were incubated at ambient temperature (typically 22° C.) for 60 min and then read on a PerkinElmer EnVision microplate reader using standard TRF settings (λEx=320 nm, λEm=615 & 665 nm). The ratioed counts (665 nm/615 nm) were converted to percent of control (POC) using the following equation:
[formula] • where: • Xmax Average Uninhibited Controls • Xmin Average Background
A 4-parameter logistic model was the fit to the POC data for each compound. From that fit, the IC50 was estimated and is defined as the concentration of compound at which the best-fit curve crosses 50 POC.

[4] = biological target: BCRP (Homo sapiens (Human), UniProt Q9UNQ0); assay: BCRP MDCKII permeability assay: efflux ratio; assay type: in vitro ADME; conditions: dog
[5] = biological target: P-gp (MDR1) (Homo sapiens (Human), UniProt P08183); assay: MDR1 LLC-PK1 permeability assay: efflux ratio; assay type: in vitro ADME; conditions: pig
Excerpt: as §1

Sequence of P-gp (MDR1) (P08183 whole entry, species assumed): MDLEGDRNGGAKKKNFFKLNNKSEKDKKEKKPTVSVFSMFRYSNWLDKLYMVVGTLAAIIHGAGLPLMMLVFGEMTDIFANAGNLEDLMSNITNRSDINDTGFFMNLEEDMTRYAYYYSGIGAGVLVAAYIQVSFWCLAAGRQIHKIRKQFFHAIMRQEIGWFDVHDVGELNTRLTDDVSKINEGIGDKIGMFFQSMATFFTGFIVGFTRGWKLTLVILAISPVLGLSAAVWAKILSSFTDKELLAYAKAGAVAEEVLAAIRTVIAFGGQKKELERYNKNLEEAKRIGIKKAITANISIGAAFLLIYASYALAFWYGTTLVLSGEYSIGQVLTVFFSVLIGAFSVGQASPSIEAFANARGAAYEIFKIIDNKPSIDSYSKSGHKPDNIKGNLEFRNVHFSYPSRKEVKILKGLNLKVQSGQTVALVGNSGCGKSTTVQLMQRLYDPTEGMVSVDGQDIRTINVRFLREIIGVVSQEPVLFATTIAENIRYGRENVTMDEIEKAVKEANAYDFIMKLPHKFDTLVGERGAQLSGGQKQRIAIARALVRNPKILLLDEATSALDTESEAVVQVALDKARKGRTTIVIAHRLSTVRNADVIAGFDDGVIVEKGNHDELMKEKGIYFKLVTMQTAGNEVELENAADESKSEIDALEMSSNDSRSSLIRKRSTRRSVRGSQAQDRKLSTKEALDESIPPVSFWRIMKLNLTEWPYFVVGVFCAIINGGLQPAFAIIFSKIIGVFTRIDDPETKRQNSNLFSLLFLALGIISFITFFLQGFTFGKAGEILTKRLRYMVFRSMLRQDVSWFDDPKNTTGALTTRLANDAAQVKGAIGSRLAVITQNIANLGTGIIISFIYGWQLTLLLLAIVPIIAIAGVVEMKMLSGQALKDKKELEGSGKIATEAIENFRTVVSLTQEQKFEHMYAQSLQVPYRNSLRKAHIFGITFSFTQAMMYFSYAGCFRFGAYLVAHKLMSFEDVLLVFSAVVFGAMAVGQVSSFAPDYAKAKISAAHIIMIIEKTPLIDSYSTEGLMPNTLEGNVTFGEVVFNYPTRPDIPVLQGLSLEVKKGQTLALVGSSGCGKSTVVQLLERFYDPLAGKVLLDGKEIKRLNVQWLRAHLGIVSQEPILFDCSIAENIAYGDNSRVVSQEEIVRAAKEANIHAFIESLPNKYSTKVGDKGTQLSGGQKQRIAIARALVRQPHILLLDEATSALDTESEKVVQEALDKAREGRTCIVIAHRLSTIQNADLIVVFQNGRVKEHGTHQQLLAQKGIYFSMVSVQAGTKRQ
Sequence of full-length FLAG-tagged B-Raf(V600E) (P15056 whole entry V600E): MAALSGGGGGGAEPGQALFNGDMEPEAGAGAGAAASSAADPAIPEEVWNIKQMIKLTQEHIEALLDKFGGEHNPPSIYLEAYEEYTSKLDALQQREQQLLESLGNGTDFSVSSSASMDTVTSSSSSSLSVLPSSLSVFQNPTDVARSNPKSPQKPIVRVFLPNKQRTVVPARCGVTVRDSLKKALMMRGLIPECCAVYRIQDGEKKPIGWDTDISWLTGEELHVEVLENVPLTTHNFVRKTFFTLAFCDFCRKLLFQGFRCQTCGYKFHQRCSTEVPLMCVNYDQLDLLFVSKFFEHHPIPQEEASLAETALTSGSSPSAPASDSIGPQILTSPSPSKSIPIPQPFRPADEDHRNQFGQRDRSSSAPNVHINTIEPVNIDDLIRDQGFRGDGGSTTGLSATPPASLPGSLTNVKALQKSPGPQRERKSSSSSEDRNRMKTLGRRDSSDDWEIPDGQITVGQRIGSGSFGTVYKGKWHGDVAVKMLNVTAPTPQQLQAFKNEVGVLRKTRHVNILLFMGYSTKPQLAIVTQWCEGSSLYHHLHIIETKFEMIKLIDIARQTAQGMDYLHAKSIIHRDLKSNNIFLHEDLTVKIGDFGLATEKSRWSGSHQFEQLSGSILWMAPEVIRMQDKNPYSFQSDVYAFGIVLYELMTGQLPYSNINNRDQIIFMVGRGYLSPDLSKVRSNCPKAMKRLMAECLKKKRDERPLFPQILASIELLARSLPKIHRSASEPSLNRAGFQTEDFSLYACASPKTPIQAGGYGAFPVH
Sequence of BCRP (Q9UNQ0 whole entry): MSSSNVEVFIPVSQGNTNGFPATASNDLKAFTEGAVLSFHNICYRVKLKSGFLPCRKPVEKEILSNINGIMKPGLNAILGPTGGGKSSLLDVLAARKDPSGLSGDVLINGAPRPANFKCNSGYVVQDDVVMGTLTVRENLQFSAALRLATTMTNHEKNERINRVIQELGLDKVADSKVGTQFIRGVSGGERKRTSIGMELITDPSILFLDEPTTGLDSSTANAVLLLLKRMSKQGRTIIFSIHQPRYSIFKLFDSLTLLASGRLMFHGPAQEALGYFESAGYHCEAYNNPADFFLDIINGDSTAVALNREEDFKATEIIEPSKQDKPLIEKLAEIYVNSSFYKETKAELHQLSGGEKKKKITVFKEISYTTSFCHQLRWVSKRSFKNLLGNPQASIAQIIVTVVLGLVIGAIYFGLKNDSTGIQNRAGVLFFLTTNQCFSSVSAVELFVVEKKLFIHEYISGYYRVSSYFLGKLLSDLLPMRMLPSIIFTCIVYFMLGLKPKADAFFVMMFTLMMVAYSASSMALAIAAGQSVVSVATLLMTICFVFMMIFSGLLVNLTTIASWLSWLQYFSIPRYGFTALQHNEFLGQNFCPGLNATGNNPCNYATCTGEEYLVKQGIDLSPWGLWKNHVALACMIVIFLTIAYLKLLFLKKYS

SMILES	Papp at 2 h, 1 µM [1]	IC50 [2]	IC50 [3]	efflux ratio at 2 h, 1 µM [4]	efflux ratio at 2 h, 1 µM [5]
Cc1c(Nc2c(F)ccc(NS(=O)(=O)N3CCCCC3)c2Cl)ccc2ncn(C)c(=O)c12 [Example 84, N-(2-chloro-3-((3,5-dimethyl-4-oxo-3,4-dihydroquinazolin-6-yl)amino)-4-fluorophenyl)piperidine-1-sulfonamide]	18 ×10⁻⁶ cm/s	133 nM	53 nM	0.8	0.8
COCC1(C)CN(S(=O)(=O)Nc2ccc(F)c(Nc3ccc4ncn(C)c(=O)c4c3C)c2Cl)C1 [Example 140, N-(2-chloro-3-((3,5-dimethyl-4-oxo-3,4-dihydroquinazolin-6-yl)amino)-4-fluorophenyl)-3-(methoxymethyl)-3-methylazetidine-1-sulfonamide trifluoroacetate]	48 ×10⁻⁶ cm/s	52 nM	16 nM	0.8	1.2
COCC1CN(S(=O)(=O)Nc2ccc(F)c(Oc3ccc4ncn(C)c(=O)c4c3C)c2Cl)C1 [Example 115, N-(2-chloro-3-((3,5-dimethyl-4-oxo-3,4-dihydroquinazolin-6-yl)oxy)-4-fluorophenyl)-3-(methoxymethyl)azetidine-1-sulfonamide]	28 ×10⁻⁶ cm/s	21 nM	10 nM	1.5	1.6
CO[C@H]1CN(S(=O)(=O)Nc2ccc(F)c(Nc3ccc4ncn(C)c(=O)c4c3C)c2Cl)C[C@@H]1F (relative stereo) [Example 78, (trans)-N-(2-chloro-3-((3,5-dimethyl-4-oxo-3,4-dihydroquinazolin-6-yl)amino)-4-fluorophenyl)-3-fluoro-4-methoxypyrrolidine-1-sulfonamide]	34 ×10⁻⁶ cm/s	189 nM	114 nM	1	1.5
CCOC1CN(S(=O)(=O)Nc2ccc(F)c(Nc3ccc4ncn(C)c(=O)c4c3C)c2Cl)C1 [Example 160, N-(2-chloro-3-((3,5-dimethyl-4-oxo-3,4-dihydroquinazolin-6-yl)amino)-4-fluorophenyl)-3-ethoxyazetidine-1-sulfonamide]	38 ×10⁻⁶ cm/s	87 nM	33 nM	1.3	1.3
Cn1cnc2ccc(Nc3c(F)ccc(NS(=O)(=O)N4CC5(CCC5)C4)c3Cl)c(Cl)c2c1=O [Example 158, N-(2-chloro-3-((5-chloro-3-methyl-4-oxo-3,4-dihydroquinazolin-6-yl)amino)-4-fluorophenyl)-2-azaspiro[3.3]heptane-2-sulfonamide trifluoroacetate]	26 ×10⁻⁶ cm/s	156 nM	8 nM	1.1	1.5
Cc1c(Nc2c(F)ccc(NS(=O)(=O)N3CC(OC(F)F)C3)c2Cl)ccc2ncn(C)c(=O)c12 [Example 161, N-(2-chloro-3-((3,5-dimethyl-4-oxo-3,4-dihydroquinazolin-6-yl)amino)-4-fluorophenyl)-3-(difluoromethoxy)azetidine-1-sulfonamide]	27 ×10⁻⁶ cm/s	245 nM	24 nM	2.6	1.9
Cc1c(Nc2c(F)ccc(NS(=O)(=O)N3CC4(CC4)C3)c2Cl)ccc2ncn(C)c(=O)c12 [Example 163, N-(2-chloro-3-((3,5-dimethyl-4-oxo-3,4-dihydroquinazolin-6-yl)amino)-4-fluorophenyl)-5-azaspiro[2.3]hexane-5-sulfonamide trifluoroacetate]	23 ×10⁻⁶ cm/s	179 nM	8 nM	1.4	1.9
Cc1c(Oc2c(F)ccc(NS(=O)(=O)N3CC4CC4C3)c2Cl)ccc2ncn(C)c(=O)c12 (stereo not drawn) [Example 91]	17 ×10⁻⁶ cm/s	123 nM	9 nM	0.8	1.5
